The term EC50 denotes the concentration at which the effect is half-maximal.

The source of these data is patent US7528164B2, “Substituted 4-aryl-4h-pyrrolo[2,3-h]chromenes and analogs as activators of caspases and inducers of apoptosis and the use thereof” (Cytovia, Inc., priority 2002, dated 2009).

Read-outs that look alike come from different tables or passages of the source. Bounds are passed on as bounds.

One experiment has as its system ZR-75-1. The experiment is described as follows: Caspase cascade activation assay in ZR-75-1 cells (N-(Ac-DEVD)-N'-ethoxycarbonyl-R110 fluorogenic substrate). The experiment is classed as cell-based. The following applies: ZR-75-1 human breast cancer cells, 24 h incubation; for Caspase activity (Ratio): ratio of net RFU of test compound to control; for EC50: sigmoidal dose-response, read-out: Caspase potency EC50. Here is the method:
(§1) Human breast cancer cell lines T-47D and ZR-75-1 were grown according to media component mixtures designated by American Type Culture Collection+10% FCS (Invitrogen Corporation), in a 5% CO2-95% humidity incubator at 37° C. T-47D and ZR-75-1 cells were maintained at a cell density between 30 and 80% confluency at a cell density of 0.1 to 0.6×10^6 cells/mL. Cells were harvested at 600×g and resuspended at 0.65×10^6 cells/mL into appropriate media+10% FCS. An aliquot of 45 μl of cells was added to a well of a 96-well microtiter plate containing 5 μl of a 10% DMSO in RPMI-1640 media solution containing about […] of 2-amino-3-cyano-4-(5-methyl-pyridin-3-yl)-7-methyl-4H-pyrrolo[2,3-h]chromene (Example 10) or other test compound (0.016 to 1 μM final). An aliquot of 45 μl of cells was added to a well of a 96-well microtiter plate containing 5 μl of a 10% DMSO in RPMI-1640 media solution without test compound as the control sample. The samples were mixed by agitation and then incubated at 37° C. for 24 h in a 5% CO2-95% humidity incubator. After incubation, the samples were removed from the incubator and 50 μl of a solution containing 20 μM of N-(Ac-DEVD)-N′-ethoxycarbonyl-R110 (SEQ ID No:1) fluorogenic substrate (Cytovia, Inc.; U.S. Pat. No. 6,335,429), 20% sucrose (Sigma), 20 mM DTT (Sigma), 200 mM NaCl (Sigma), 40 mM Na PIPES buffer pH 7.2 (Sigma), and 500 μg/ml lysolecithin (Calbiochem) was added. The samples were mixed by agitation and incubated at room temperature. Using a fluorescent plate reader (Model 1420 Wallac Instruments), an initial reading (T=0) was made approximately 1-2 min after addition of the substrate solution, employing excitation at 485 nm and emission at 530 nm, to determine the background fluorescence of the control sample. After the 3 h incubation, the samples were read for fluorescence as above (T=3 h).
(§2) The Relative Fluorescence Unit values (RFU) were used to calculate the sample readings as follows: RFU(T=3h)−Control RFU(T=0)=Net RFU(T=3h) The activity of caspase cascade activation was determined by the ratio of the net RFU value for 2-amino-3-cyano-4-(5-methyl-pyridin-3-yl)-7-methyl-4H-pyrrolo[2,3-h]chromene or other test compound to that of control samples. The EC50 (nM) was determined by a sigmoidal dose-response calculation (Prism 2.0, GraphPad Software Inc.).

The next experiment relates to T-47D. As to the kind of experiment: Caspase cascade activation assay in T-47D cells (N-(Ac-DEVD)-N'-ethoxycarbonyl-R110 fluorogenic substrate). Conditions: T-47D human breast cancer cells, 24 h incubation; for EC50: sigmoidal dose-response, read-out: Caspase potency EC50; for Caspase activity (Ratio): ratio of net RFU of test compound to control. The class given is cell-based. Here is the method: as §1, §2

As for `Cc1cncc(C2C(C#N)=C(N)Oc3c2ccc2c3ccn2C)n1` (stereo not shown) [Example 2, 2-Amino-3-cyano-7-methyl-4-(6-methyl-pyrazin-2-yl)-4H-pyrrolo[2,3-h]chromene], the “Caspase activity (Ratio)” value stood at 4.3 in the experiment on ZR-75-1 and 8.2 in the experiment on T-47D. In addition, the concentration for a half-maximal effect (EC50) in the experiment with ZR-75-1 was 41.3 nM; in the experiment on T-47D (T47D), 110 nM.
The corresponding values for `Cn1ccc2c3c(ccc21)C(c1cccc(C#N)c1)C(C#N)=C(N)O3` (stereo not shown) [Example 32, 2-Amino-3-cyano-4-(3-cyanophenyl)-7-methyl-4H-pyrrolo[2,3-h]chromene] are 3.6, 5.3, 2.9 nM and 6.9 nM.
With `Cn1ccc2c3c(ccc21)C(c1cncc(Br)c1)C(C#N)=C(N)O3` (stereo not shown) [Example 11, 2-Amino-4-(5-bromo-pyridin-3-yl)-3-cyano-7-methyl-4H-pyrrolo [2,3-h]chromene], the “Caspase activity (Ratio)” value with ZR-75-1 stood at 4.1; with T-47D, 4.6. Further, the EC50 in the experiment on ZR-75-1 came to 1.1 nM; in the experiment on T-47D (T47D) it was 2.9 nM.
On to `Cc1cncc(C2C(C#N)=C(N)Oc3c2ccc2c3ccn2C)c1` (stereo not shown) [Example 10, 2-Amino-3-cyano-4-(5-methyl-pyridin-3-yl)-7-methyl-4H-pyrrolo[2,3-h]chromene], for which the results for the “Caspase activity (Ratio)” value in the experiment with ZR-75-1 and in the experiment on T-47D were 6.6 and 3.1, respectively. Also, the concentration for a half-maximal effect (EC50) in the experiment with ZR-75-1 turned out to be 1.6 nM; with T-47D (T47D), 2.3 nM.
Take `Cn1ccc2c3c(ccc21)C(c1ccc(Cl)c(Cl)c1)C(C#N)=C(N)O3` (stereo not shown) [Example 40E, 2-Amino-3-cyano-4-(3,4-dichlorophenyl)-7-methyl-4H-pyrrolo[2,3-h]chromene]: the figures for the “Caspase activity (Ratio)” value with ZR-75-1 and in the experiment on T-47D were 3.2 and 1.3, respectively. Also, the EC50 in the experiment with ZR-75-1 was 81 nM; in the experiment on T-47D (T47D), more than 100 nM.
The corresponding values for `Cn1ccc2c3c(ccc21)C(c1ccc(C#N)cc1)C(C#N)=C(N)O3` (stereo not shown) [Example 40B, 2-Amino-3-cyano-4-(4-cyanophenyl)-7-methyl-4H-pyrrolo[2,3-h]chromene] are 4.2, 4.9, 35 nM and 55 nM.
Regarding `COc1cc(C2C(C#N)=C(N)Oc3c2ccc2c3CCN2C)cc(Br)c1OC` (stereo not shown) [Example 23, 2-Amino-4-(3-bromo-4,5-dimethoxyphenyl)-3-cyano-8,9-dihydro-7-methyl-4H-pyrrolo[2,3-h]chromene], the “Caspase activity (Ratio)” value turned out to be 5.0 with ZR-75-1 and 5.2 with T-47D. Moreover, the EC50 in the experiment with ZR-75-1 was found to be 2.3 nM; in the experiment on T-47D (T47D), 3.3 nM.
For “2-Amino-4-(3-bromo-4,5-dimethoxyphenyl)-3-cyano-7-(2-diethyl-amino-ethyl)-4H-pyrrolo[2,3-h]chromene [Example 6]”, in the experiment with ZR-75-1, the “Caspase activity (Ratio)” value turned out to be 7.0 and the half-maximal effective concentration (EC50) was 259 nM. In the experiment with T-47D, the “Caspase activity (Ratio)” value stood at 3.3 and the EC50 is 413 nM.
`COc1cc(C2C(C#N)=C(N)Oc3c2ccc2c3ccn2CC2CC2)cc(Br)c1OC` (stereo not shown) [Example 5, 2-Amino-4-(3-bromo-4,5-dimethoxyphenyl)-3-cyano-7-cyclopropylmethyl-4H-pyrrolo[2,3-h]chromene]: the entries for the “Caspase activity (Ratio)” value in the experiment with ZR-75-1 and with T-47D were 3.0 and 4.0, respectively. Moreover, the results for the EC50 with ZR-75-1 and in the experiment on T-47D (T47D) were 28.6 nM and 55.3 nM, respectively.
Consider `COc1cc(C2C(C#N)=C(N)Oc3c2ccc2c3ccn2CO)cc(OC)c1OC` (stereo not shown) [Example 33, 2-Amino-3-cyano-4-(3,4,5-trimethoxyphenyl)-7-hydroxymethyl-4H-pyrrolo[2,3-h]chromene], for which the “Caspase activity (Ratio)” value in the experiment with ZR-75-1 amounted to 3.0; in the experiment with T-47D it was 4.3. Also, the EC50 with ZR-75-1 was 3.3 nM; with T-47D (T47D), 6.2 nM.
